How the values were obtained:
RSV A2 [1] = test: Inhibition of RSV infectivity in vitro, plaque assay on HEp-2 cell monolayers; assay type: cell-based, respiratory syncytial virus (RSV); settings: for effect on RSV infectivity (in words): prior exposure (1 hour) of HEp-2 cells to recombinant chemokine, up to 10 μg/ml
Experimental: Inhibition of virus infectivity in vitro. HEp-2 cell monolayers were grown in 96-well tissue culture plates (Falcon, Becton Dickson and Co.; Franklin Lakes, N.J.) with complete medium. The monolayers were pre-treated for 1 hour at 4° C. or 37° C. in triplicate wells with the indicated amounts of recombinant chemokine or anti-chemokine receptor antibody. After removal of chemokine or antibody, the monolayers were infected 1 hour at the same temperature with the denoted wild type or mutant RSV strain and then overlaid with 2% Sephadex (Amersham Biosciences; Piscataway, N.J.). Anti-viral activity was also assessed 1 hour after the cells were infected, or following simultaneous exposure of the monolayers to virus in a 1:1 mixture with the indicated doses of chemokines or CCL5 peptides. The inhibitory properties of the anti-chemokine receptor antibodies were tested alone or in combination at doses ranging from 5 to 100 μg/ml culture medium.
(§1) Plaque assay. Virus plaques were visualized as previously described (Hancock et al. 1996) using anti-F protein (L4) mAb (Paradiso et al., 1991; Walsh and Hruska, 1983). Thereafter, cells were rinsed with blotto blocking agent (PBS, 5% powdered milk) and incubated with horseradish peroxidase-conjugated goat anti-mouse IgG (Kirkegaard and Perry Laboratories, Inc.; Gaithersburg, Md.). Bound antibody was detected using 0.05% 4-chloro-1-naphtol containing 0.1% H2O2 in PBS. After enumeration of plaques, the mean percent infectivity (±1 standard deviation of triplicate wells) was calculated relative to monolayers exposed to virus in culture medium alone without chemokine or anti-chemokine receptor antibody.

RSV A2 [2] = test: Inhibition of virus infectivity in vivo, lung virus titers in BALB/c mice; settings: for reduced infectivity, fold: co-administration with RSV (Table 16); for inhibition of RSV infection in vivo (in words): BALB/c mouse model
Experimental: Inhibition of virus infectivity in vivo. […] All administrations were intranasal (0.05 ml) and performed under injected anesthesia (60 mg ketamine/kg and 2.5 mg xylazine/kg (The Butler Co.; Dublin Ohio)). Four days later the lungs were removed, homogenized, clarified by low speed centrifugation, snap frozen, and stored at −70° C. until plaque assays were performed using HEp-2 cell monolayers (Hancock et al. 1996). All animals were housed in a facility accredited by the American Association for Accreditation of Laboratory Animal Care.
as §1

HEp-2 cells = test: Binding of biotinylated CCL5 peptides to HEp-2 cell monolayers (ELISA); design: species or system human; settings: FIG. 3, viable HEp-2 cells at 4° C.
Experimental: Interaction of CCL5 peptides with HEp-2 cells. An ELISA was used to assess the relative binding of synthetic peptides to HEp-2 cell monolayers. In brief, 96-well plates (Falcon) were seeded with 3×10^4 HEp-2 cells per well in 0.2 ml of complete medium. After overnight incubation (37° C., 5% CO2), the monolayers were cooled on ice for approximately 15 minutes. The biotinylated peptides were added to duplicate wells in ascending doses from 0.49 μg to 500 μg per ml DMEM (supplemented with 1% FBS, 2% penicillin/streptomycin, and 2 mM L-glutamine) and incubated at 4° C. for 1 hour. The monolayers were then fixed (20 minutes at RT) with 80% methanol (J T Baker; Phillipsburg, N.J.). […] Thereafter, the monolayers were incubated (1 hour at RT) with streptavidin-HRP (Zymed; San Francisco, Calif.). The wells were developed with TMB One-Step Substrate Solution (DAKO; Carpinteria, Calif.). Optical density was determined (450 nm, reference at 550 nm) with a Molecular Devices Versamax microplate reader (Sunnyvale, Calif.).

[3] = Table 10, 1 μg/ml, exposed 1 hour before infection, plaques after 3 days
[4] = Table 10, 5 μg/ml, exposed 1 hour before infection, plaques after 3 days
[5] = Table 10, 10 μg/ml, exposed 1 hour before infection, plaques after 3 days, relative to control wells (100%)
[6] = Table 16 Exp. 1, 250 μg/dose, simultaneously admixed with RSV A2, four days
[7] = all experiments at the 500 μg/dose
[8] = Table 16 Exp. 1, 500 μg/dose, simultaneously admixed with RSV A2, intranasal, lungs four days later
[9] = Table 17, 500 μg, Simultaneous with RSV A2, four days
[10] = Table 12, 10 μg/ml, 1 hour after removal of RSV A2 (POST)
[11] = Table 12, 10 μg/ml, 1 hour prior to infection (PRE)
[12] = Table 11, 1 μg/ml, exposed 1 hour before infection, plaques after 3 days
[13] = Table 11, 5 μg/ml, exposed 1 hour before infection, plaques after 3 days
[14] = Table 11, 10 μg/ml, exposed 1 hour before infection, plaques after 3 days

## CCL11: recombinant human chemokine CCL11 (eotaxin)
RSV A2 [1]; [3]
  Percent Infectivity: 94.4 ± 4.8%
RSV A2 [1]; [4]
  Percent Infectivity: 93.1 ± 12.7%
RSV A2 [1]; [5]
  Percent Infectivity: 94.4 ± 4.8%
RSV A2 [1]
  effect on RSV infectivity (in words): did not impair RSV infectivity

## EKKWVREYINSLEMS (listed as Homo sapiens) [Peptide 9, CCL5 amino acids 54-68]
RSV A2 [2]; [6]
  RSV/Gram Lung Tissue (log10): 3.7 ± 0.1 log10
RSV A2 [2]; [7]
  average reduction in virus load: 1.4 log10
RSV A2 [2]
  reduced infectivity, fold: approximately 10 fold

## TPCCFAYIARPLPRA (listed as Homo sapiens) [Peptide 2, CCL5 amino acids 8-22]
RSV A2 [2]; [7]
  average reduction in virus load: 0.9 log10

## PAVVFVTRKNRQVC (listed as Homo sapiens) [Peptide 6, CCL5 amino acids 37-50]
RSV A2 [2]; [7]
  average reduction in virus load: 0.5 log10

## AHIKEYFYTSGKCSN (listed as Homo sapiens) [Peptide 4, CCL5 amino acids 22-36]
RSV A2 [2]; [7]
  average reduction in virus load: 1.2 log10

## TRKNRQVCANPEKKW (listed as Homo sapiens) [Peptide 7, CCL5 amino acids 43-57]
RSV A2 [2]; [8]
  RSV/Gram Lung Tissue (log10): 4.6 ± 0.1 log10
RSV A2 [2]; [9]
  RSV/Gram Lung Tissue (log10): 3.8 ± 0.1 log10
RSV A2 [2]; [7]
  average reduction in virus load: 1.1 log10

## SPYSSDTTPCCFAYI (listed as Homo sapiens) [Peptide 1, CCL5 amino acids 1-15]
RSV A2 [2]; 300 μg or more, five experiments
  average reduction in virus load: 2.4 log10
RSV A2 [2]
  inhibition of RSV infection in vivo (in words): most inhibitory in vivo
RSV A2 [2]; Table 16 Exp. 1, 125 μg/dose, simultaneously admixed with RSV A2, four days
  RSV/Gram Lung Tissue (log10): 4.6 ± 0.2 log10
RSV A2 [2]; [6]
  RSV/Gram Lung Tissue (log10): 4.3 ± 0.2 log10
RSV A2 [2]; [8]
  RSV/Gram Lung Tissue (log10): 1.8 ± 0.1 log10
RSV A2 [2]; Table 16 Exp. 2, 300 μg/dose, simultaneously admixed with RSV A2, four days
  RSV/Gram Lung Tissue (log10): 4.0 ± 0.1 log10
RSV A2 [2]; Table 16 Exp. 2, 400 μg/dose, simultaneously admixed with RSV A2, four days
  RSV/Gram Lung Tissue (log10): 3.8 ± 0.1 log10
RSV A2 [2]; Table 16 Exp. 2, 500 μg/dose, simultaneously admixed with RSV A2, four days
  RSV/Gram Lung Tissue (log10): 3.1 ± 0.1 log10
RSV A2 [2]; Table 17, 500 μg, 1 hour after infection (Post), four days
  RSV/Gram Lung Tissue (log10): 5.3 ± 0.2 log10
RSV A2 [2]; Table 17, 500 μg, 1 hour before infection (Pre), four days
  RSV/Gram Lung Tissue (log10): 3.5 ± 0.6 log10
RSV A2 [2]; [9]
  RSV/Gram Lung Tissue (log10): 1.9 ± 0.2 log10
RSV A2 [2]; administered 1 hour before infection
  virus load diminished, fold: more than 50 fold
HEp-2 cells
  binding to the epithelial cell monolayer (in words): readily bound to the epithelial cell monolayer

## CANPEKKWVREYINS (listed as Homo sapiens) [Peptide 8, CCL5 amino acids 50-64]
RSV A2 [2]; [8]
  RSV/Gram Lung Tissue (log10): 3.6 ± 0.03 log10
RSV A2 [2]; [7]
  average reduction in virus load: 1.0 log10
RSV A2 [2]
  reduced infectivity, fold: approximately 10 fold

## NC(=O)CN(CC(N)=O)S(=O)(=O)c1cccc(Nc2nc(Nc3cccc(S(=O)(=O)N(CC(N)=O)CC(N)=O)c3)nc(Nc3ccc(-c4ccc(Nc5nc(Nc6cccc(S(=O)(=O)N(CC(N)=O)CC(N)=O)c6)nc(Nc6cccc(S(=O)(=O)N(CC(N)=O)CC(N)=O)c6)n5)cc4S(=O)(=O)O)c(S(=O)(=O)O)c3)n2)c1 [RFI-641, reference compound]
RSV A2 [2]
  inhibition of RSV infection in vivo (in words): inhibitory against RSV infection
RSV A2 [2]; Table 16 Exp. 1, 25 μg/dose, simultaneously admixed with RSV A2, four days
  RSV/Gram Lung Tissue (log10): 2.7 ± 0.2 log10
RSV A2 [2]; Table 16 Exp. 2, 25 μg/dose, simultaneously admixed with RSV A2, four days
  RSV/Gram Lung Tissue (log10): 2.7 ± 0.3 log10

B1: CCL15: recombinant human chemokine CCL15 (MIP-1δ) (protein, UniProt Q16663 22-113, looked up)
C-C motif chemokine 15: QFTNDAETELMMSKLPLENPVVLNSFHFAADCCTSYISQSIPCSLMKSYFETSSECSKPGVIFLTKKGRQVCAKPSGPGVQDCMKKLKPYSI
RSV A2 [1]; [10]
  Percent Infectivity: 93 ± 4%
RSV A2 [1]; [11]
  Percent Infectivity: 97 ± 8%
RSV A2 [1]
  effect on RSV infectivity (in words): did not impair RSV infectivity

B2: CCL3: recombinant human chemokine CCL3 (MIP-1α) (protein, UniProt P10147 24-92, looked up)
C-C motif chemokine 3: SLAADTPTACCFSYTSRQIPQNFIADYFETSSQCSKPGVIFLTKRSRQVCADPSEEWVQKYVSDLELSA
RSV A2 [1]; [3]
  Percent Infectivity: 95.8 ± 11.0%
RSV A2 [1]; [4]
  Percent Infectivity: 97.2 ± 8.7%
RSV A2 [1]; [5]
  Percent Infectivity: 86.1 ± 2.4%
RSV A2 [1]; [12]
  Percent Infectivity: 103.0 ± 3.0%
RSV A2 [1]; [13]
  Percent Infectivity: 98.0 ± 1.0%
RSV A2 [1]; [14]
  Percent Infectivity: 91.0 ± 5.0%
RSV A2 [1]; [10]
  Percent Infectivity: 104 ± 7%
RSV A2 [1]; [11]
  Percent Infectivity: 91 ± 10%
RSV A2 [1]
  effect on RSV infectivity (in words): did not impair infectivity

B3: CCL8: recombinant human chemokine CCL8 (MCP-2) (protein, UniProt P80075 24-99, looked up)
C-C motif chemokine 8: QPDSVSIPITCCFNVINRKIPIQRLESYTRITNIQCPKEAVIFKTKRGKEVCADPKERWVRDSMKHLDQIFQNLKP
RSV A2 [1]; [3]
  Percent Infectivity: 88.9 ± 6.4%
RSV A2 [1]; [4]
  Percent Infectivity: 100.0 ± 0.0%
RSV A2 [1]; [5]
  Percent Infectivity: 94.4 ± 10.5%
RSV A2 [1]
  effect on RSV infectivity (in words): did not impair RSV infectivity

B4: CCL4: recombinant human chemokine CCL4 (MIP-1β) (protein, UniProt P13236 24-92, looked up)
C-C motif chemokine 4: APMGSDPPTACCFSYTARKLPRNFVVDYYETSSLCSQPAVVFQTKRSKQVCADPSESWVQEYVYDLELN
RSV A2 [1]; [12]
  Percent Infectivity: 104.0 ± 4.0%
RSV A2 [1]; [13]
  Percent Infectivity: 99.0 ± 9.0%
RSV A2 [1]; [14]
  Percent Infectivity: 98.0 ± 5.0%
RSV A2 [1]
  effect on RSV infectivity (in words): did not impair infectivity
